The record followed here is patent US20210386835A1, “AN ANTIMICROBIAL COMPOSITION FOR SELECTIVELY INHIBITING GROWTH OF P. ACNES BACTERIA” (priority 2018, published 2021).

The subject of this experiment is P. acnes 6919 strain (ATCC, USA). The experiment is described as follows: Contact kill assay against P. acnes (2 h exposure, colony count). It counts as cell-based, Propionibacterium acnes. Conditions: 10 mM HEPES pH 7.0, 37° C., relative to control. The method, then: P. acnes 6919 strain (ATCC, USA) was grown under anaerobic conditions on RCM agar from Glycerol stocks. A loopful of culture from glycerol stock was streaked on freshly prepared RCM agar plate and incubated at 37° C. anaerobically for 4-5 days. After the incubation, the culture was taken from the plate and re-suspended in saline and then centrifuged at 8000 rpm for 6 minutes at 4° C. The pellet obtained was re-suspended in 10 mM HEPES buffer (pH 7.0). An OD600 culture of 0.5 was made in HEPES buffer. 1:10 dilution of 0.5 OD adjusted culture was used for contact kill assay corresponding to 10^6 cells per ml. […] The contact assay was performed in 10 mM HEPES buffer (pH 7.0). For control, 181 μl of 1:10 diluted […] adjusted culture was mixed with 19 μl of HEPES buffer to make a volume of 200 μl. […] The mixture was mixed and incubated at 37° C. for 2 hours in shaker incubator. Post incubation, the samples were neutralised by serial 1:10 dilution in D/E broth followed by saline dilutions. 100 μl of each dilution was plated on fresh RCM agar plates and allowed to dry. The plates were sealed with parafilm and incubated at 37° C. in anaerobic chamber for 4-5 days. Post incubation, colonies were counted and titer was estimated as log CFU/ml. The relative log reductions of individual and combination treatment were calculated with respect to control and the data is presented in the table below: […]

As for `Cc1ccc(C(C)C)c(O)c1` [Thymol, thymol], the Relative log reduction is, setting by setting: (Thymol 0.01%) 0.33; (Thymol 0.02%) 2.02.

B1: Endolysin: recombinant P. acnes phage endolysin cloned from Propionibacterium phage 29399B_C, 284 amino acids, expressed in E. coli (protein)
chain: MRYIPAAHHSAGSNHPVNRVVIHATCPDVGFPSASRKGRAVSTANYFASPSSGGSAHYVCDIGETVQCLSEGTIGWHAPPNPHSLGIEICADGGSHASFRVPGHAYTREQWLDPRVWPAVEKAAILCRRLCDKYNVPKRKLSAADLKAGRRGVCGHVDVTDAWHQSDHDDPGPWFPWDRFMAVVNGHNESGELTVADVKALHDQIKQLSAQLAGSVNKLHHDVGVVQVQNGDLGKRVDALSWVKNPVTGKLWRTKDALWSVWYYVLECRSRIDRLESAVNGLKKLEHHHHHH
modifications: His6 tag; Polypeptide sequence of Endolysin with C-terminal Histidine tag (x6)
For B1, the Relative log reduction (Endolysin 3 μM) worked out at 1.17.
